Data reported in publication PMC12280126, “Potent β-lactam-based tyrosyl-DNA phosphodiesterase 1 inhibitors identified by a virtual screen” (Scientific Reports, 2025).
“And” between values parts separate entries of the source, which are not always exact repeats. Identical values can stand only once. Counter-ions that a name gives are not always drawn.

Target: T1, recombinant TDP1 (Homo sapiens, UniProt Q9NUW8)
T1 construct: incubated with 40 pM full-length recombinant TDP1 or TDP1 (148–608)
Assay: in vitro gel-based fluorescence TDP1 catalytic assay
Type: biochemical
Conditions: 40 pM recombinant TDP1, 1 nM N14Y DNA substrate, 15 min, room temperature; read-out: TDP1 IC50
Procedure: We subjected select virtual screen hits to evaluation of TDP1 inhibitory potencies using in vitro gel-based fluorescence TDP1 catalytic assays (Fig. 2). […] To further explore this class of compounds, we purchased from TargetMol a library of approximately 90 β-lactams as 10 mM solutions in DMSO. […] We examined TDP1 inhibitory potencies of the compounds using the in vitro gel-based fluorescence assays as previously described[21]–[24]. Briefly, a 5’-Cy5-labeled DNA substrate (N14Y, 5’-Cy5-[…]-pY-3’, 1 nM) was incubated in TDP1 reaction buffer with recombinant TDP1 or truncated TDP1(148–608) (40 pM) in the absence or presence of inhibitors for 15 min at room temperature. […] The TDP1 inhibition IC50 values were calculated based on gel images of the cleavage product (N14P, 5’-Cy5-[…]-p-3’) (Fig. 3A and Table S2).
The inhibition of TDP1 and TDP2 were conducted according to gel-based methods as previously described[21]–[24],[45]. Briefly, 1 nM of the DNA substrate (N14Y, 5´Cy5-[…]-pY-3´) was incubated with 40 pM full-length recombinant TDP1 or TDP1 (148–608) in the absence or presence of inhibitors for 15 min at room temperature in TDP1 reaction buffer (50 mM Tris-HCl, pH 7.5, 80 mM KCl, 2 mM EDTA, 1 mM DTT, 40 µg/mL BSA and 0.01% Tween 20). The inhibition of TDP2 was also conducted by using similar conditions. […] The reactions of both TDP1 and TDP2 were stopped by adding an equal volume of gel loading buffer (99.5% (v/v) formamide, 5 mM EDTA). The samples were then subjected to a 20% denaturing PAGE gel followed by gel scanning using a Typhoon FLA 9500 scanner (GE Healthcare). The IC50 values of the TDP1 inhibitors were calculated by comparing the percentage of the cleavage product (N14P, 5´Cy5-[…]-p-3´) produced to that in the DMSO control. The IC50 values of the TDP2 inhibitors were calculated by comparing the percentage of the cleavage product (PN18, 5’-p-[…]-Cy5-3’) produced to that in the DMSO control.

T1 sequence (Q9NUW8 whole entry): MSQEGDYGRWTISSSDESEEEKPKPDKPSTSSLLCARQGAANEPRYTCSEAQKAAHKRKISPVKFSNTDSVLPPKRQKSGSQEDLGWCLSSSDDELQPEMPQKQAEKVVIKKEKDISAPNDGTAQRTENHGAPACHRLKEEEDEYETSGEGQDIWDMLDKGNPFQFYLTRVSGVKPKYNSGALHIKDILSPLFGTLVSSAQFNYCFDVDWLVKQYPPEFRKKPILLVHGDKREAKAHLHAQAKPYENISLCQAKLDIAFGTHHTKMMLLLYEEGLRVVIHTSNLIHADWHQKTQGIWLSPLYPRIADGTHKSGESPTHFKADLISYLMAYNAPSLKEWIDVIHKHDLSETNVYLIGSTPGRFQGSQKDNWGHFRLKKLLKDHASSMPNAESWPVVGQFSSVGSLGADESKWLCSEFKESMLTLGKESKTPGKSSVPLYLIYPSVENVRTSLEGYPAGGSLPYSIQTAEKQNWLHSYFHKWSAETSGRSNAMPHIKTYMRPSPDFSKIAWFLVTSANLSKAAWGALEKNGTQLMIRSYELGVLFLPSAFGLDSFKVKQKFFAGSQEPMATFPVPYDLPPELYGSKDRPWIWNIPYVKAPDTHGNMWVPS

Compound | IC50
Cc1nnc(SCC2=C(C(=O)O)N3C(=O)[C@@H](NC(=O)Cn4cnnn4)[C@H]3SC2)s1 [LA3, Cefazolin] | > 1000 µM
CCN1CCN(C(=O)N[C@@H](C(=O)N[C@@H]2C(=O)N3C(C(=O)O)=C(CSc4nnnn4C)CS[C@H]23)c2ccc(O)cc2)C(=O)C1=O [LB8, Cefoperazone] | > 1000 µM
CC/C=C(\C(=O)N[C@@H]1C(=O)N2C(C(=O)OCOC(=O)C(C)(C)C)=C(COC(N)=O)CS[C@H]12)c1csc(N)n1 [LD6, Cefcapene Pivoxil Hydrochloride] | > 1000 µM
CC(=O)OCC1=C(C(=O)O)N2C(=O)[C@@H](NC(=O)CSc3ccncc3)[C@H]2SC1 [LC8, Cephapirin Sodium] | 496 µM
C[C@H]1[C@H](NC(=O)/C(=N\OC(C)(C)C(=O)O)c2csc(N)n2)C(=O)N1S(=O)(=O)O [LH3, Aztreonam] | 620 ± 61 µM
CO/N=C(\C(=O)N[C@@H]1C(=O)N2C(C(=O)O)=C(COC(C)=O)CS[C@H]12)c1csc(N)n1 [LA1, Cefotaxime sodium] | > 1000 µM
CO[C@@]1(NC(=O)C(C(=O)O)c2ccc(O)cc2)C(=O)N2C(C(=O)O)=C(CSc3nnnn3C)CO[C@@H]21 (some centres unmarked) [LC4, Latamoxef sodium] | 179 µM and 180 µM
CC1(C)S[C@@H]2[C@H](NC(=O)[C@H](NC(=O)N3CCNC3=O)c3ccccc3)C(=O)N2[C@H]1C(=O)O [LF4, Azlocillin sodium] | > 1000 µM
Cn1nnnc1SCC1=C(C(=O)O)N2C(=O)[C@@H](NC(=O)[C@H](OC=O)c3ccccc3)[C@H]2SC1 [LD4, Cefamandole nafate] | > 1000 µM
C=CC1=C(C(=O)O)N2C(=O)[C@@H](NC(=O)/C(=N\O)c3csc(N)n3)[C@H]2SC1 [LB10, Cefdinir] | > 1000 µM
CO/N=C(\C(=O)N[C@@H]1C(=O)N2C(C(=O)O)=C(CSc3nc(=O)c(=O)[nH]n3C)CS[C@H]12)c1csc(N)n1 [LG2, Ceftriaxone sodium] | > 1000 µM
CO/N=C(\C(=O)N[C@@H]1C(=O)N2C(C(=O)O)=C(C[N+]3(C)CCCC3)CS[C@H]12)c1csc(N)n1 [LB1, Cefepime Dihydrochloride Monohydrate] | > 1000 µM
CO/N=C(\C(=O)N[C@@H]1C(=O)N2C(C(=O)[O-])=C(C[n+]3cccc4c3CCCC4)CS[C@H]12)c1csc(N)n1 [LD11, Cefquinome sulfate] | > 1000 µM
CO[C@@]1(NC(=O)C2SC(=C(C(N)=O)C(=O)O)S2)C(=O)N2C(C(=O)O)=C(CSc3nnnn3C)CS[C@@H]21 (some centres unmarked) [LB4, Cefotetan] | 379 µM
C[C@@H](O)[C@H]1C(=O)N2C(C(=O)O)=C(S[C@@H]3CN[C@H](C(=O)Nc4cccc(C(=O)O)c4)C3)[C@H](C)[C@H]12 [LD5, Ertapenem sodium] | > 1000 µM
CCN1CCN(C(=O)N[C@@H](C(=O)N[C@@H]2C(=O)N3[C@@H]2SC(C)(C)[C@@H]3C(=O)O)c2ccccc2)C(=O)C1=O [LG3, Piperacillin sodium salt] | > 1000 µM
CC1(C)S[C@@H]2[C@H](NC(=O)C(c3ccccc3)S(=O)(=O)O)C(=O)N2[C@H]1C(=O)O (some centres unmarked) [LA6, Sulbenicillin Sodium] | > 1000 µM
Cefotiam Hexetil Hydrochloride [LC9] | > 1000 µM
CO/N=C(\C(=O)N[C@@H]1C(=O)N2C(C(=O)[O-])=C(C[n+]3cccc4c3CCC4)CS[C@H]12)c1csc(N)n1 [LD3, Cefpirome sulfate] | > 1000 µM
CO/N=C(\C(=O)N[C@@H]1C(=O)N2C(C(=O)OC(C)OC(C)=O)=C(COC(N)=O)CS[C@H]12)c1ccco1 (some centres unmarked) [LF10, Cepazine] | > 1000 µM
CO/N=C(\C(=O)N[C@@H]1C(=O)N2C(C(=O)O)=C(COC(N)=O)CS[C@H]12)c1ccco1 [LF11, Cefuroxime sodium] | 111 µM
CC1(C)S[C@@H]2[C@H](NC(=O)[C@H](C(=O)O)c3ccsc3)C(=O)N2[C@H]1C(=O)O [LB5, Ticarcillin sodium] | > 1000 µM
O=C(O)C1=C(CSc2nnnn2CS(=O)(=O)O)CS[C@@H]2[C@H](NC(=O)[C@H](O)c3ccccc3)C(=O)N12 [LF9, Cefonicid sodium] | > 1000 µM
NCc1ccccc1CC(=O)N[C@@H]1C(=O)N2C(C(=O)O)=C(CSc3nnnn3CC(=O)O)CS[C@H]12 [LC10, Ceforanide] | 378 µM

Compound | IC50
C[C@@H](O)[C@H]1C(=O)N2C(C(=O)O)=C(S[C@@H]3CN[C@H](C(=O)N(C)C)C3)[C@H](C)[C@H]12 [LF1, Meropenem] | > 1000 µM
C[C@@H](O)[C@H]1C(=O)N2C(C(=O)O)=C(S[C@@H]3CN[C@H](CNS(N)(=O)=O)C3)[C@H](C)[C@H]12 [LE5, Doripenem] | 148 µM
Nc1nc(/C(=C/CC(=O)O)C(=O)N[C@@H]2C(=O)N3C(C(=O)O)=CCS[C@H]23)cs1 [LD10, Ceftibuten dihydrate] | > 1000 µM
CC1=C(C(=O)O)N2C(=O)C(N)C2SC1 (centres unmarked) [LB12, Cefalexine EP IMpurity B] | > 1000 µM
Nc1nc2c(c(=O)[nH]1)N=C(CNc1ccc(C(=O)N[C@@H](CCC(=O)O)C(=O)O)cc1)CN2 [compound 10, dihydrofolic acid dihydrate] | 60.1 µM and 60 µM
C[C@@H](O)[C@H]1C(=O)N2C(C(=O)O)=C(S[C@@H]3CN[C@H](CNS(N)(=O)=O)C3)[C@H](C)[C@H]12 [LE10, Doripenem Hydrate] | > 1000 µM
CO/N=C(\C(=O)N[C@@H]1C(=O)N2C(C(=O)O)=C(Cn3ccc(=N)n3CCO)CS[C@H]12)c1csc(N)n1 [LB7, Cefoselis Sulfate] | > 1000 µM
C[n+]1ccn(C[C@@]2(C)[C@H](C(=O)[O-])N3C(=O)C[C@H]3S2(=O)=O)n1 [LF2, AAI101] | > 1000 µM
CC1=C(C(=O)O)N2C(=O)[C@@H](NC(=O)[C@H](N)c3ccccc3)[C@H]2SC1 [LH11, Cephalexin] | > 1000 µM
CO/N=C(\C(=O)N[C@@H]1C(=O)N2C(C(=O)O)=C(CSc3nnnn3C)CS[C@H]12)c1csc(N)n1 [LG4, Cefmenoxime hydrochloride] | > 1000 µM
NC(=O)c1cc[n+](CC2=C(C(=O)O)N3C(=O)[C@@H](NC(=O)[C@@H](c4ccccc4)S(=O)(=O)[O-])[C@H]3SC2)cc1 [LC1, Cefsulodine sodium] | > 1000 µM
CCO/N=C(\C(=O)N[C@@H]1C(=O)N2C(C(=O)[O-])=C(Sc3nc(-c4cc[n+](C)cc4)cs3)CS[C@H]12)c1nsc(NP(=O)(O)O)n1 [LA11, Ceftaroline fosamil] | > 1000 µM
C[C@@H](O)[C@H]1C(=O)N2C(C(=O)O)=C([C@H]3CCCO3)S[C@H]12 [LC7, Faropenem sodium] | > 1000 µM
CO/N=C(\C(=O)N[C@@H]1C(=O)N2C(C(=O)O)=C(CSc3nc(C)c(CC(=O)O)s3)CS[C@H]12)c1csc(N)n1 [LA5, Cefodizime Sodium] | > 1000 µM
Cc1cc(O)c(C(=O)N[C@@H](C(=O)N[C@@H]2C(=O)N3C(C(=O)O)=C(CSc4nnnn4C)CS[C@H]23)c2ccc(O)cc2)cn1 [LH1, Cefpiramide acid] | > 1000 µM
Cc1nnc(SCC2=C(C(=O)O)N3C(=O)[C@@H](NC(=O)Cn4cc(Cl)c(=O)c(Cl)c4)[C@H]3SC2)s1 [LA8, Cefazedone] | > 1000 µM
CC1=C(C(=O)O)N2C(=O)[C@@H](NC(=O)[C@H](N)c3ccc(O)cc3)[C@H]2SC1 [LE1, Cefadroxil] | > 1000 µM
CC1(C)S[C@@H]2[C@H](/N=C/N3CCCCCC3)C(=O)N2[C@H]1C(=O)O [LE6, Mecillinam] | > 1000 µM
Cc1onc(-c2ccccc2)c1C(=O)NC1C(=O)N2[C@@H]1SC(C)(C)[C@@H]2C(=O)O (some centres unmarked) [LH8, Oxacillin sodium] | > 1000 µM
C/C=C/C1=C(C(=O)O)N2C(=O)[C@@H](NC(=O)[C@H](N)c3ccc(O)cc3)[C@H]2SC1 [LG8, Cefprozil hydrate] | > 1000 µM
N[C@@H](C(=O)N[C@@H]1C(=O)N2C(C(=O)O)=C(Cl)CS[C@H]12)c1ccccc1 [LE11, Cefaclor monohydrate] | > 1000 µM
Cc1nnc(SCC2=C(C(=O)O)N3C(=O)[C@@H](NC(=O)Cn4cnnn4)[C@H]3SC2)s1 [LH10, Cefazolin sodium salt] | 530 µM
Cc1onc(-c2ccccc2Cl)c1C(=O)N[C@@H]1C(=O)N2[C@@H]1SC(C)(C)[C@@H]2C(=O)O [LH2, Cloxacillin sodium monohydrate] | > 1000 µM
COCC1=C(C(=O)OC(C)OC(=O)OC(C)C)N2C(=O)[C@@H](NC(=O)/C(=N\OC)c3csc(N)n3)[C@H]2SC1 (some centres unmarked) [LD2, Cefpodoxime proxetil] | > 1000 µM

Same assay, conditions: TDP1 IC50, 40 pM recombinant TDP1, 1 nM N14Y DNA substrate, 15 min, room temperature

Compound | IC50
CON=C(C(=O)NC1C(=O)N2C(C(=O)OCOC(=O)C(C)(C)C)=C(C)CSC12)c1csc(N)n1 (centres unmarked) [LB3, Cefetamet pivoxil hydrochloride] | > 1000 µM

Same assay, conditions: read-out: TDP1 IC50

Compound | IC50
CO[C@@]1(NC(=O)CSC[C@@H](N)C(=O)O)C(=O)N2C(C(=O)O)=C(CSc3nnnn3C)CS[C@@H]21 [LE3, Cefminox Sodium] | > 1000 µM
